From article PMC4113456, “Atypical Signaling and Functional Desensitization Response of MAS Receptor to Peptide Ligands” (PLoS ONE, 2014)

Experiments:
untagged WT MAS = target: T1, untagged WT MAS (Homo sapiens, UniProt P04201); assay: Calcium assay, untagged WT MAS inducible HEK293 stable cell line; format: cell-based
T1 construct: expressed in transfected cells
T1 sequence (P04201 1-325): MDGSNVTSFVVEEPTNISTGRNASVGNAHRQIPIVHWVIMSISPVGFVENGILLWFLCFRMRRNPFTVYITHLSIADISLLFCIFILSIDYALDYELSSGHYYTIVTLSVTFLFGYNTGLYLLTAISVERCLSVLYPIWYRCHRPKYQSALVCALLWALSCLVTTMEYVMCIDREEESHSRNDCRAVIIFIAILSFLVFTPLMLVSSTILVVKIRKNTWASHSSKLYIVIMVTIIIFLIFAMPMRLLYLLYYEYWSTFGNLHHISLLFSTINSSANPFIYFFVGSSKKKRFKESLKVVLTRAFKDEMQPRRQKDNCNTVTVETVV
Method: The assay was performed using FLIPR Calcium 5 assay kit (Molecular Devices, Sunnyvale, CA). For calcium measurements, cells at a density of 125,000 cells/well in 100 µl medium were seeded onto a 96-well clear bottom black cell culture plate that was pre-coated with poly-L-lysine. In the calcium assays the cell density of 125,000 cells/well was consistently maintained to minimize variability between independent experiments. The cells were seeded in induction media to induce MAS expression or in complete media for negative controls. The plate was maintained in a cell culture incubator for 26–28 h. The cells were then serum starved for 2 h by replacing the medium with 100 µl of serum free DMEM. In the case of pre-treatment with pan-inhibitor of G protein signaling, BIM-46187, the cells were initially serum starved for 1 h by replacing the medium with 50 µl of serum free DMEM. After 1 h, 50 µl of BIM-46187 was added to the cells to a final concentration of 25 µM and treated for another 1 h. Following serum starvation, 100 µl of calcium sensitive dye along with 2x (2.5 mM final concentration) probenecid (Life Technologies, Grand Island, NY) was added to the cells. During this step, AR-inverse agonist or BIM-46187 was also added at desired concentrations to the calcium dye preparation in case of experiments where cells were pre-treated with these inhibitors. The cells were maintained for one hour in the cell culture incubator. Following this, the 96-well plate containing cells loaded with calcium dye and a U-bottom 96-well plate containing ligands at 5x the desired final concentration in D-PBS (1.47 mM KH2PO4, 138 mM NaCl, 2.67 mM KCl, 8.1 mM Na2HPO4, pH 7.3) were allowed to equilibrate for 15 min on a FlexStation 3 instrument (Molecular Devices, Sunnyvale, CA) at 37°C. The plates were further equilibrated on the instrument for 5 min with the lids removed from the plates. The instrument was programmed in FLEX mode to add ligands (50 µl at 5x concentration) to the cells and to monitor the fluorescence before and after adding the ligands. […]

MAS [1] = target: T2, MAS (Homo sapiens, UniProt P04201); assay: Calcium re-stimulation and antagonism assays, MAS expressing stable cells; format: cell-based
T2 construct: expressed in transfected cells
T2 sequence (P04201 1-325): T1 sequence (P04201 1-325)
Method: The assay was performed using FLIPR Calcium 5 assay kit (Molecular Devices, Sunnyvale, CA). For calcium measurements, cells at a density of 125,000 cells/well in 100 µl medium were seeded onto a 96-well clear bottom black cell culture plate that was pre-coated with poly-L-lysine. In the calcium assays the cell density of 125,000 cells/well was consistently maintained to minimize variability between independent experiments. The cells were seeded in induction media to induce MAS expression or in complete media for negative controls. The plate was maintained in a cell culture incubator for 26–28 h. The cells were then serum starved for 2 h by replacing the medium with 100 µl of serum free DMEM. In the case of pre-treatment with pan-inhibitor of G protein signaling, BIM-46187, the cells were initially serum starved for 1 h by replacing the medium with 50 µl of serum free DMEM. After 1 h, 50 µl of BIM-46187 was added to the cells to a final concentration of 25 µM and treated for another 1 h. Following serum starvation, 100 µl of calcium sensitive dye along with 2x (2.5 mM final concentration) probenecid (Life Technologies, Grand Island, NY) was added to the cells. During this step, AR-inverse agonist or BIM-46187 was also added at desired concentrations to the calcium dye preparation in case of experiments where cells were pre-treated with these inhibitors. The cells were maintained for one hour in the cell culture incubator. […] The instrument was programmed in FLEX mode to add ligands (50 µl at 5x concentration) to the cells and to monitor the fluorescence before and after adding the ligands. […]
For re-stimulation assays, the data is expressed as the percentage of maximum agonist stimulation to allow for ready comparison between individual experiments. For the IP1 assay, a standard curve was generated using the 4-Parameter logistic equation fit of the HTRF readings of IP1 standards using the SoftMax Pro software. […] In the luciferase assay, the luminescence measurements (RLU) are presented as a ratio of firefly to renilla luciferase activity. […]

MAS [2] = test system: MAS; design: method as in ref [9] (a number printed in a supplementary file, which may have a reference list of its own: not looked up in the article's list); conditions: Rat MAS; ref [9]; read-out: EC50 (IP1 assay); cited from earlier work

Row | SMILES | EC50 (untagged WT MAS; read-out: EC50, calcium flux) [nM] | Response to second agonist (NPFF or AR-agonist) after first stimulation with the ligand (MAS [1]; re-stimulation assay, second ligand at 600 s) | EC50 (MAS [2]) [nM] | IC50 (untagged WT MAS; read-out: IC50, calcium flux) [nM] | Inhibition of NPFF calcium response (MAS [1]; first ligand at 25 µM, then NPFF) | Inhibition of AR-agonist calcium dose-response by pre-treatment (MAS [1]; pre-treatment at 25 µM)
1 | COc1cc([N+](=O)[O-])ccc1S(=O)(=O)N1CC(CN2CCN(c3ccccn3)CC2)C(c2cccc(F)c2)C1 (stereo not shown) [AR-agonist] | 1200 ± 100 | did not respond | 170 | – | – | –
2 | C=CCCN1CCC2(CC1)CN(C(=O)c1c(F)cccc1F)c1ccc(Cl)cc12 [AR-inverse] | – | – | 348 | 500 ± 400 | completely inhibited | complete inhibition
